Patent publication US20100130604A1, “USE OF ROSMARINIC ACID IN MANUFACTURE OF MEDICAMENTS FOR TREATING OR PREVENTING HEPATIC AND RENAL DISEASES” (SHANGDONG LUYE NATURAL DRUG RESEARCH AND DEVELOPMENT CO., …, priority 2006, published 2010)
Marks after values point to notes of the source that are not given here.

Assays:
[1] = system: hepatofibrosis in rats; experiment: CCl4-induced hepatofibrosis in chronic hepatitis in rats; type: in vivo, Sprague Dawley rats; conditions: for T (Rank-sum test of fibrosis) / fiber proliferation level 0 (number of rats) / fiber proliferation level I (number of rats) / fiber proliferation level II (number of rats) / fiber proliferation level III (number of rats) / fiber proliferation level IV (number of rats) / HYP / HA / LN / PCIII: 6 weeks; for fiber proliferation level 0 (number of rats) / fiber proliferation level I (number of rats) / fiber proliferation level II (number of rats) / fiber proliferation level III (number of rats) / fiber proliferation level IV (number of rats): n=10; for HYP: hepatic; for HA / LN / PCIII: serum
Description: 120 rats were randomly divided into 12 groups, with 10 in each group, namely, a normal control group, a model group, […] Apart from the normal control group, all rats were s.c. injected 0.3 ml of 40% solution of CC14 in oil per 100 g of body weight once every 3 days for 6 weeks. Animals in the normal control group were s.c. injected 0.3 ml/100 g body weight of oil vehicle following the same schedule as the experimental groups. First dose was doubled for all animals. Six weeks later, drugs were continuously administered to animals in each group for 6 weeks. After the administration was completed, all animals were anaesthetised with i.p. injection of 20% ethyl carbamate solution (Beijing Tongxian District Yucai Fine Chemicals). Blood was collected from abdominal aorta. Hepatic lobule tissue was removed, part of which was fixed with 10% neutral foinialin solution and made into wax blocks within 24-48 hours. […] Serum HA, LN, Pc III levels and hepatic HYP level were determined according to the respective kit instructions.

[2] = system: CRF rats; experiment: CRF induced by 5/6 nephrectomy in rats; type: in vivo, Sprague Dawley rats
Description: 130 rats were randomly divided into 13 groups, with 10 animals in each group, namely, a normal control group, a model group, methylprednisolone p.o. Group at 12 mg/kg, RA i.v. groups at 2.5 mg/kg, 5 mg/kg, 25 mg/kg, 75 mg/kg, and 150 mg/kg of RA, and RA p.o. groups at 5 mg/kg, 10 mg/kg, 50 mg/kg, 150 mg/kg, and 300 mg/kg of RA. Apart from the normal control group, all other rats were induced to CRF by cutting off 5/6 of the kidneys. 2/3 of the left kidney was removed in the first operation, and one week later the right kidney in the second operation. Dosing started one week after the second operation via p.o. or i.p. routes. Blood was collected from eyepit at week 4 and week 8 to determine creatinine and urea nitrogen levels in sera. 5 animals in each group were sacrificed at week 4 and […] were sacrificed at the end of the study. Pathological changes in renal function were observed through HE and PAS staining of histopathological sections.

## O=C(/C=C/c1ccc(O)c(O)c1)O[C@H](Cc1ccc(O)c(O)c1)C(=O)O [RA, R(+)2-{[3-(3,4-dihydroxylphenyl-(oxo-2-propenyl)oxy]3,4-dihydroxylphenylpropionic acid]}]
[1]; RA i.v. 2.5 mg/kg
  T (Rank-sum test of fibrosis): 82*
  fiber proliferation level 0 (number of rats): 0
  fiber proliferation level I (number of rats): 1
  fiber proliferation level II (number of rats): 2
  fiber proliferation level III (number of rats): 3
  fiber proliferation level IV (number of rats): 4
[1]; RA i.v. 5 mg/kg
  T (Rank-sum test of fibrosis): 81.5*
  fiber proliferation level 0 (number of rats): 0
  fiber proliferation level I (number of rats): 1
  fiber proliferation level II (number of rats): 2
  fiber proliferation level III (number of rats): 6
  fiber proliferation level IV (number of rats): 1
[1]; RA i.v. 25 mg/kg
  T (Rank-sum test of fibrosis): 76*
  fiber proliferation level 0 (number of rats): 0
  fiber proliferation level I (number of rats): 2
  fiber proliferation level II (number of rats): 3
  fiber proliferation level III (number of rats): 4
  fiber proliferation level IV (number of rats): 1
[1]; RA i.v. 75 mg/kg
  T (Rank-sum test of fibrosis): 71**
  fiber proliferation level 0 (number of rats): 0
  fiber proliferation level I (number of rats): 3
  fiber proliferation level II (number of rats): 2
  fiber proliferation level III (number of rats): 5
  fiber proliferation level IV (number of rats): 0
[1]; RA i.v. 150 mg/kg
  T (Rank-sum test of fibrosis): 66**
  fiber proliferation level 0 (number of rats): 0
  fiber proliferation level I (number of rats): 3
  fiber proliferation level II (number of rats): 4
  fiber proliferation level III (number of rats): 3
  fiber proliferation level IV (number of rats): 0
[1]; RA p.o. 2.5 mg/kg
  T (Rank-sum test of fibrosis): 95
  fiber proliferation level 0 (number of rats): 0
  fiber proliferation level I (number of rats): 1
  fiber proliferation level II (number of rats): 2
  fiber proliferation level III (number of rats): 3
  fiber proliferation level IV (number of rats): 4
[1]; RA p.o. 5 mg/kg
  T (Rank-sum test of fibrosis): 77*
  fiber proliferation level 0 (number of rats): 0
  fiber proliferation level I (number of rats): 1
  fiber proliferation level II (number of rats): 2
  fiber proliferation level III (number of rats): 7
  fiber proliferation level IV (number of rats): 0
[1]; RA p.o. 25 mg/kg
  T (Rank-sum test of fibrosis): 71**
  fiber proliferation level 0 (number of rats): 0
  fiber proliferation level I (number of rats): 3
  fiber proliferation level II (number of rats): 2
  fiber proliferation level III (number of rats): 5
  fiber proliferation level IV (number of rats): 0
[1]; RA p.o. 150 mg/kg
  T (Rank-sum test of fibrosis): 66**
  fiber proliferation level 0 (number of rats): 0
  fiber proliferation level I (number of rats): 3
  fiber proliferation level II (number of rats): 4
  fiber proliferation level III (number of rats): 3
  fiber proliferation level IV (number of rats): 0
[1]; RA p.o. 300 mg/kg
  T (Rank-sum test of fibrosis): 66**
  fiber proliferation level 0 (number of rats): 0
  fiber proliferation level I (number of rats): 2
  fiber proliferation level II (number of rats): 5
  fiber proliferation level III (number of rats): 2
  fiber proliferation level IV (number of rats): 1
[1]; RA treated groups
  liver, electronic microscopic examination: hepatocyte damages were alleviated
  liver, light microscopic examination (HE, VG collagen staining): less fiber connective tissue hyperplasia, thinner fibrous septa and less pseudolobule formation
[1]; all RA treated groups vs model group
  liver fibrosis, pathology examination: less severe fibrosis
[1]; i.v. 2.5 mg/kg
  HYP: 1657 ± 124 µg/L
  HA: 111.2 ± 24.1 µg/L
  LN: 72.6 ± 19.0 µg/L
  PCIII: 36.2 ± 7.8 µg/L
[1]; i.v. 5 mg/kg
  HYP: 1630 ± 110 µg/L
  HA: 106.3 ± 23.4 µg/L
  LN: 68.3 ± 17.9 µg/L
  PCIII: 34.2 ± 7.6 µg/L
[1]; i.v. 25 mg/kg
  HYP: 1578 ± 113 µg/L
  HA: 97.5 ± 23.6 µg/L
  LN: 62.0 ± 20.0 µg/L
  PCIII: 31.4 ± 7.8 µg/L
[1]; i.v. 75 mg/kg
  HYP: 1278 ± 121 µg/L
  HA: 77.9 ± 20.7 µg/L
  LN: 57.6 ± 16.8 µg/L
  PCIII: 26.5 ± 9.1 µg/L
[1]; i.v. 150 mg/kg
  HYP: 1217 ± 143 µg/L
  HA: 74.6 ± 18.9 µg/L
  LN: 55.3 ± 14.6 µg/L
  PCIII: 25.7 ± 7.8 µg/L
[1]; p.o. 2.5 mg/kg
  HYP: 1724 ± 121 µg/L
  HA: 113.8 ± 24.8 µg/L
  LN: 79.1 ± 19.4 µg/L
  PCIII: 38.0 ± 7.5 µg/L
[1]; p.o. 5 mg/kg
  HYP: 1614 ± 121 µg/L
  HA: 104.3 ± 26.4 µg/L
  LN: 69.3 ± 16.9 µg/L
  PCIII: 33.7 ± 7.3 µg/L
[1]; p.o. 25 mg/kg
  HYP: 1535 ± 125 µg/L
  HA: 97.0 ± 24.6 µg/L
  LN: 61.0 ± 20.6 µg/L
  PCIII: 31.6 ± 7.2 µg/L
[1]; p.o. 150 mg/kg
  HYP: 1299 ± 153 µg/L
  HA: 84.9 ± 20.5 µg/L
  LN: 59.6 ± 16.8 µg/L
  PCIII: 27.5 ± 9.6 µg/L
[1]; p.o. 300 mg/kg
  HYP: 1250 ± 174 µg/L
  HA: 80.7 ± 18.6 µg/L
  LN: 57.3 ± 18.6 µg/L
  PCIII: 26.9 ± 10.5 µg/L
[1]; i.v. 2.5, 5, 25, 75, 150 mg/kg, p.o. 5, 25, 150, 300 mg/kg
  fibrosis (Rank-sum test): can significantly reduce fibrosis
[1]; i.v. 2.5, 5, 25, 75, 150 mg/kg, p.o. 5, 25, 150, 300 mg/kg, p<0.05 or 0.01
  HA, LN, Pc III and HYP levels vs model group: can all significantly reduce HA, LN, Pc III, and HYP levels
[2]; 4 weeks, p.o. 5 mg/kg
  Serum urea nitrogen: 20.21 ± 2.22 mg/dL
[2]; 4 weeks, p.o. 50 mg/kg
  Serum urea nitrogen: 19.95 ± 2.20 mg/dL
[2]; 8 weeks, p.o. 5 mg/kg
  Serum urea nitrogen: 25.98 ± 2.72 mg/dL
[2]; 8 weeks, p.o. 50 mg/kg
  Serum creatinine: 1.92 ± 0.32 mg/dL
[2]; 8 weeks, p.o. 300 mg/kg
  Serum creatinine: 1.74 ± 0.36 mg/dL
[2]; week 8
  renal pathological changes (HE, PAS): alleviated by RA treatment in a dose-dependent manner
